Results on one substance are retold here after US6403774B1, “Azoamidine compound” (Wako Pure Chemical Industries, Ltd., priority 2000, dated 2002).

The series can be described thus: Thermal decomposition of the azo compound (10 hour half-life temperature, decomposition rate constant). It is filed as physicochemical.

In the case of “2,2′-azobis[2-methyl-1-(1-pyrrolidinyl)iminopropane] hydrochloride [Example 1]”, the “10 hour half-life temperature” value came out at 66.5 °C. Further, under “60° C.”, the “Decomposition rate constant k60° C.” value amounted to 7.94e-06 s⁻¹. Also, the “Decomposition rate constant k70° C.” value (70° C.) came out at 3.03e-05 s⁻¹. For the same substance, where the note is “decomposition kinetics”, the Ea is 30.39 kcal/mol and the lnA is given as 34.19.
